Results as given in ChEMBL document CHEMBL1909046, “DrugMatrix in vitro pharmacology data”.

How the values were obtained:
[1] = target: 5-hydroxytryptamine receptor 2B (Homo sapiens, UniProt P41595); type: cell membranes, CHO-K1, Membrane; settings: cho-k1; also: in other assays of this panel Not Active means under 50% inhibition at 10 µM
Substance-P receptor = Substance-P receptor (Homo sapiens, UniProt P25103); type: cell membranes, CHO, Membrane; settings: cho; also: in other assays of this panel Not Active means under 50% inhibition at 10 µM
Thromboxane-A synthase = target: T1, Thromboxane-A synthase (Homo sapiens, UniProt P24557); experiment: biochemical; type: tissue-based, Platelet; settings: platelet;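 also: enzyme inhibition assay with PGH2 supplied as substrate; in other assays of this panel Not Active means under 50% inhibition at 10 µM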
T1 sequence (P24557 whole entry): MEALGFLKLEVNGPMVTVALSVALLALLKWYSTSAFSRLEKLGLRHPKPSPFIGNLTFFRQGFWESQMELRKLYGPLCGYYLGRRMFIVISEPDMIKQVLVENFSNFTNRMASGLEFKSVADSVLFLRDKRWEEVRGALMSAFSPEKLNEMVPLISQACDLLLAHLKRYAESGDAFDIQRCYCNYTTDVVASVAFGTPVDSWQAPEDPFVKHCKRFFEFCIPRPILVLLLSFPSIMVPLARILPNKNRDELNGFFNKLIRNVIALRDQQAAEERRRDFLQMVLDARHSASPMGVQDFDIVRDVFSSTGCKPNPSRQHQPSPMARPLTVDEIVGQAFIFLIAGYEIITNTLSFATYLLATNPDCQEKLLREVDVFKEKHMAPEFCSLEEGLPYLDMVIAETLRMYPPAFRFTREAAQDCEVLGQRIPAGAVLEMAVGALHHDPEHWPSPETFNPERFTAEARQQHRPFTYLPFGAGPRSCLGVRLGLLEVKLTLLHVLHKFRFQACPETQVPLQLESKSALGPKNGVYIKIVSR

[2] = DRUGMATRIX: Tumor Necrosis Factor (TNF), Non-Selective radioligand binding (ligand: [125I] TNF-alpha); type: cell membranes, Membrane; settings: u-937; Not Active = under 50% inhibition at 10 µM
[3] = DRUGMATRIX: Calcium Channel Type L, Phenylalkylamine radioligand binding (ligand: [3H] (-)-Desmethoxyverapamil (D-888)); type: cell membranes, Rattus norvegicus, Wistar, Brain, Membrane; settings: Not Active = under 50% inhibition at 10 µM
[4] = target: T2, C-C chemokine receptor type 4 (Homo sapiens, UniProt P51679); type: cell membranes, Membrane; settings: chem-1; also: in other assays of this panel Not Active means under 50% inhibition at 10 µM
T2 sequence (P51679 whole entry): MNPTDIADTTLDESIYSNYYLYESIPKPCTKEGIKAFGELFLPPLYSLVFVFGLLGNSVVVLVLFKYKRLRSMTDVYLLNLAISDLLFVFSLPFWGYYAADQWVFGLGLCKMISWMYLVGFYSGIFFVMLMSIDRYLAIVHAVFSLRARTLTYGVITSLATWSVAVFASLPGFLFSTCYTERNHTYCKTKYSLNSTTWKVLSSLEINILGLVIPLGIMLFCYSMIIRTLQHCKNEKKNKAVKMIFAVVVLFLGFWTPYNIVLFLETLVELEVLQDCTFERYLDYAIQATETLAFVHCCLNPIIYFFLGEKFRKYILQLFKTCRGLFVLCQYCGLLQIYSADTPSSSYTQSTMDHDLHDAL

D(1A) dopamine receptor = D(1A) dopamine receptor (Homo sapiens, UniProt P21728); experiment: DRUGMATRIX: Dopamine D1 radioligand binding (ligand: [3H] SCH-23390); type: cell membranes, CHO, Membrane; settings: cho, Not Active = under 50% inhibition at 10 µM
[5] = DRUGMATRIX: Glutamate, Kainate radioligand binding (ligand: [3H] Kainic acid); type: cell membranes, Rattus norvegicus, Wistar, Brain, Membrane; settings: Not Active = under 50% inhibition at 10 µM
Glycine receptor = Glycine receptor (Rattus norvegicus, UniProt P22771+P24524+P07727+P20781); type: cell membranes, Wistar, Spinal cord, Membrane; also: in other assays of this panel Not Active means under 50% inhibition at 10 µM
[6] = target: T3, Neuropeptide Y receptor type 2 (Homo sapiens, UniProt P49146); type: cell membranes, Membrane; settings: kan-ts; also: in other assays of this panel Not Active means under 50% inhibition at 10 µM
T3 sequence (P49146 whole entry): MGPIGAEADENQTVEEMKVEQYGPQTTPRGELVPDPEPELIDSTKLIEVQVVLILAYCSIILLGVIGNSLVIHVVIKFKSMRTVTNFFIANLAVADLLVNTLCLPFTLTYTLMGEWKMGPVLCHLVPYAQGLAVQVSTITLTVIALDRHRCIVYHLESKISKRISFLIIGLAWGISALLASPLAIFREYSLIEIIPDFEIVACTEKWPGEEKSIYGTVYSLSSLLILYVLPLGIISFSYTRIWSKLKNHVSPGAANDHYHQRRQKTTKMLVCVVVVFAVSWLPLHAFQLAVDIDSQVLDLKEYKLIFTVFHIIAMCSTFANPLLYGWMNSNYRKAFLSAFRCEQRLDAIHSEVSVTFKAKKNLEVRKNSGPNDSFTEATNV

[7] = target: Platelet-activating factor receptor (Homo sapiens, UniProt P25105); experiment: biochemical; type: tissue-based; settings: platelet; also: in other assays of this panel Not Active means under 50% inhibition at 10 µM
Caspase-1 = target: T4, Caspase-1 (Homo sapiens, UniProt P29466); parameters: species or system Escherichia coli
T4 sequence (P29466 whole entry): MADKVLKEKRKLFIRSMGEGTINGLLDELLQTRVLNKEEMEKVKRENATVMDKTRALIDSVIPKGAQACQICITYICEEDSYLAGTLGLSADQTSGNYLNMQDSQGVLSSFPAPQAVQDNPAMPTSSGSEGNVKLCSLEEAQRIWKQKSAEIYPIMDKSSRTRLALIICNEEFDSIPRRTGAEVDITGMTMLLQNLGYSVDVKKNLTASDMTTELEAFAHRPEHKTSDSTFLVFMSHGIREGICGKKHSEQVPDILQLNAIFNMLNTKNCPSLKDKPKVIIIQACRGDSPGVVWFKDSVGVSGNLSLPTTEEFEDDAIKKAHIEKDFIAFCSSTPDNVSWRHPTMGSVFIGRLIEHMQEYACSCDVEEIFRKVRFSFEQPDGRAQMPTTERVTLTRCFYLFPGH

[8] = target: Mitogen-activated protein kinase 14 (Homo sapiens, UniProt Q16539); parameters: species or system Escherichia coli
Adenosine receptor A2a = Adenosine receptor A2a (Homo sapiens, UniProt P29274); experiment: DRUGMATRIX: Adenosine A2A radioligand binding (ligand: […]); type: cell membranes, HEK293, Membrane; settings: hek293; Not Active = under 50% inhibition at 10 µM
Adenosine receptor A3 = target: T5, Adenosine receptor A3 (Homo sapiens, UniProt P0DMS8); type: cell membranes, CHO-K1, Membrane; settings: cho-k1
T5 sequence (P0DMS8 whole entry): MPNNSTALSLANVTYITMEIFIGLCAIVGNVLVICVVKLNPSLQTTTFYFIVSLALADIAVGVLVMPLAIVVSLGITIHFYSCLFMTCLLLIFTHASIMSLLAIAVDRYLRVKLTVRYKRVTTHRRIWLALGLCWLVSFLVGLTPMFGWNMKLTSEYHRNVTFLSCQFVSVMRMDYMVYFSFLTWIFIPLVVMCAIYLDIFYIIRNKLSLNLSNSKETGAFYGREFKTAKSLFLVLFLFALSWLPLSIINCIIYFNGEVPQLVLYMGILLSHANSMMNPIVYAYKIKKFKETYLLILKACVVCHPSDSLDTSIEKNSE

Sequence of Mitogen-activated protein kinase 14 (Q16539 whole entry): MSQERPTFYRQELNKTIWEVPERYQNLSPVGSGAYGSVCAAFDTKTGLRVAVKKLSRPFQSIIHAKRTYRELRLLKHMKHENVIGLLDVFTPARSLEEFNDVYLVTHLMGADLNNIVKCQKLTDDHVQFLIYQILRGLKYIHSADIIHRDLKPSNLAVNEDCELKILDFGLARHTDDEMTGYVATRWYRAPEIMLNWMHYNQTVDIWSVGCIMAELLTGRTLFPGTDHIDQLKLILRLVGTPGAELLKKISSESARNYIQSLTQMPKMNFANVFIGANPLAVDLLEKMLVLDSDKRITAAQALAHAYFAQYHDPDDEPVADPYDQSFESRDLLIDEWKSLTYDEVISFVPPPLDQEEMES
Sequence of Adenosine receptor A2a (P29274 whole entry): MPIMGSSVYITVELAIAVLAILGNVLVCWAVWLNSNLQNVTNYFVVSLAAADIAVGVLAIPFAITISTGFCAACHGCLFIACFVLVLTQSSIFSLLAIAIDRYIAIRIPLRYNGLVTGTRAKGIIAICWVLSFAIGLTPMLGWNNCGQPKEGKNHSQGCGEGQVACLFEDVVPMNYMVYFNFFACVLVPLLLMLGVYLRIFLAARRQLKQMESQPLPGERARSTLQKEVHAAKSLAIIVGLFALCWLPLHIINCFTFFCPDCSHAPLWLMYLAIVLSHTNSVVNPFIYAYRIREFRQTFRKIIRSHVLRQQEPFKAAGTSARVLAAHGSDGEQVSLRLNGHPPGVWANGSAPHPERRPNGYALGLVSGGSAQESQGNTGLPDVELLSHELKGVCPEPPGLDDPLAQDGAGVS
Sequence of Platelet-activating factor receptor (P25105 whole entry): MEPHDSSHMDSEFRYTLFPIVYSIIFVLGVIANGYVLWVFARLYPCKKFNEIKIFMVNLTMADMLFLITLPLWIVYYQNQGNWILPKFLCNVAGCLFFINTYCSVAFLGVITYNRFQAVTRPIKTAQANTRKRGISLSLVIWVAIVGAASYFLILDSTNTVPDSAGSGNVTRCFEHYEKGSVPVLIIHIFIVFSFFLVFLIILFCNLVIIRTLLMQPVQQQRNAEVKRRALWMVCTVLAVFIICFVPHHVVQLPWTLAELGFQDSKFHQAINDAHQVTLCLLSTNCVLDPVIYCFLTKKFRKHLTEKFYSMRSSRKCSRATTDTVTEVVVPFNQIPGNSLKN
Sequence of Substance-P receptor (P25103 whole entry): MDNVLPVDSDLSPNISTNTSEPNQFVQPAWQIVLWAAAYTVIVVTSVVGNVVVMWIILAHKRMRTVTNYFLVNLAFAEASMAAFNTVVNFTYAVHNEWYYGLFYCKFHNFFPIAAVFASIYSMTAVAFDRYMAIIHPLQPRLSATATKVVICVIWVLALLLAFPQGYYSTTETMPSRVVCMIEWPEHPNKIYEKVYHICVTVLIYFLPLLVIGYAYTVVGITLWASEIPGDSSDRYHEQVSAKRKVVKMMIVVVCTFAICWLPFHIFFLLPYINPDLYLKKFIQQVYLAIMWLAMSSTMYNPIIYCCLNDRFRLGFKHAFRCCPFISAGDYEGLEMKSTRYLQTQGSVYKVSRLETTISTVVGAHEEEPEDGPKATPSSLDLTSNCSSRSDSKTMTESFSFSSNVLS
Sequence of D(1A) dopamine receptor (P21728 whole entry): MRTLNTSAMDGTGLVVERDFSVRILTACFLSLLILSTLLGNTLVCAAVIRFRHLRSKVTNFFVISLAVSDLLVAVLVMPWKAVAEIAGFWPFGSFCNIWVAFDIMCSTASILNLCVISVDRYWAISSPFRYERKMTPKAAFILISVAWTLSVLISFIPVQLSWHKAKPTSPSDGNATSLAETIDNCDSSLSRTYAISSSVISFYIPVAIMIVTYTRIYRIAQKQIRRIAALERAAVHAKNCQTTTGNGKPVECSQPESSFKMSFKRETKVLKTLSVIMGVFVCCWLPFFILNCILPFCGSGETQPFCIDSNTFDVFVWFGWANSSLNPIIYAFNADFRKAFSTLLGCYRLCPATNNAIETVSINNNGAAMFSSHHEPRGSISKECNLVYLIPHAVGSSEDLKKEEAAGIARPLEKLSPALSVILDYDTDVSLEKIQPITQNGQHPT
Sequence of 5-hydroxytryptamine receptor 2B (P41595 whole entry): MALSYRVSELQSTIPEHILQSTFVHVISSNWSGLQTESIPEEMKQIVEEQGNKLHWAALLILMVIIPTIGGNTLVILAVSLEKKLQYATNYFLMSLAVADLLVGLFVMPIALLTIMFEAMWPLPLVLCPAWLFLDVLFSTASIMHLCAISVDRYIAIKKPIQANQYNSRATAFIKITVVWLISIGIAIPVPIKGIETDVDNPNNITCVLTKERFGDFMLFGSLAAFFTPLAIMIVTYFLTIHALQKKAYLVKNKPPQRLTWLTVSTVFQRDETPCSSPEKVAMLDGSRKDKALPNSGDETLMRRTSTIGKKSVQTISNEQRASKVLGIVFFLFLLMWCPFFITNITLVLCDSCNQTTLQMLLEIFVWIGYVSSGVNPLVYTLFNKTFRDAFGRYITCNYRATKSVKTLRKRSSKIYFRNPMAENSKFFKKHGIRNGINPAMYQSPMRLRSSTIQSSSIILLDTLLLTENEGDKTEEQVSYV

| Compound | IC50 [1] | IC50 (Substance-P receptor) | IC50 (Thromboxane-A synthase) | IC50 [2] | Ki [2] | IC50 [3] | Ki [3] | IC50 [4] | IC50 (D(1A) dopamine receptor) | IC50 [5] | Ki [5] | IC50 (Glycine receptor) | IC50 [6] | IC50 [7] | IC50 (Caspase-1) | IC50 [8] | IC50 (Adenosine receptor A2a) | IC50 (Adenosine receptor A3) | further results |
| --- | --- | --- | --- | --- | --- | --- | --- | --- | --- | --- | --- | --- | --- | --- | --- | --- | --- | --- | --- |
| COc1cc(C(=O)NC2CCCNC2)cc(OC)c1OC (configuration not stated) [TROXIPIDE] | Not Active | Not Active | Not Active | Not Active | Not Active | Not Active | Not Active | Not Active | Not Active | Not Active | Not Active | Not Active | Not Active | Not Active | Not Active | Not Active | Not Active | Not Active | – |
| CC(C)[C@H](N)C(=O)OCCOCn1cnc2c(=O)nc(N)[nH]c21 [VALACYCLOVIR] | Not Active | Not Active | Not Active | Not Active | Not Active | Not Active | Not Active | Not Active | Not Active | Not Active | Not Active | Not Active | Not Active | Not Active | Not Active | Not Active | Not Active | Not Active | – |
| CN[C@H](CC(C)C)C(=O)N[C@H]1C(=O)N[C@@H](CC(N)=O)C(=O)N[C@H]2C(=O)N[C@H]3C(=O)N[C@H](C(=O)N[C@H](C(=O)O)c4cc(O)cc(O)c4-c4cc3ccc4O)[C@H](O)c3ccc(c(Cl)c3)Oc3cc2cc(c3O[C@@H]2O[C@H](CO)[C@@H](O)[C@H](O)[C@H]2O[C@H]2C[C@](C)(N)[C@H](O)[C@H](C)O2)Oc2ccc(cc2Cl)[C@H]1O [VANCOMYCIN] | Not Active | Not Active | Not Active | Not Active | Not Active | Not Active | Not Active | Not Active | Not Active | Not Active | Not Active | Not Active | Not Active | Not Active | Not Active | Not Active | Not Active | Not Active | – |
| COc1ccc(C(CN(C)C)C2(O)CCCCC2)cc1 (configuration not stated) [VENLAFAXINE] | Not Active | Not Active | Not Active | Not Active | Not Active | Not Active | Not Active | Not Active | Not Active | Not Active | Not Active | Not Active | Not Active | Not Active | Not Active | Not Active | Not Active | Not Active | – |
| IVERMECTIN | Not Active | Not Active | Not Active | Not Active | Not Active | Not Active | Not Active | Not Active | – | Not Active | Not Active | – | Not Active | Not Active | Not Active | Not Active | Not Active | – | Ki [1]: Not Active; Ki (Substance-P receptor): Not Active; Ki (Thromboxane-A synthase): Not Active; Ki [4]: Not Active; IC50 (D(1A) dopamine receptor; read-out: IC50): 4510 nM; Ki (D(1A) dopamine receptor; read-out: Ki): 2260 nM; IC50 (Glycine receptor; read-out: IC50): 375 nM; Ki (Glycine receptor; read-out: Ki): 212 nM; Ki [6]: Not Active; Ki [7]: Not Active; Ki (Caspase-1): Not Active; Ki [8]: Not Active; Ki (Adenosine receptor A2a): Not Active; IC50 (Adenosine receptor A3; read-out: IC50): 512 nM; Ki (Adenosine receptor A3; read-out: Ki): 289 nM |
